From US20150148311A1, “NON-SYSTEMIC TGR5 AGONISTS” (Ardelyx, Inc., priority 2011, published 2015)

How the values were obtained:
[1] = target: T1, endogenously expressed TGR5 in NCI H716 (Homo sapiens, UniProt Q8TDU6); assay: Cell-based TGR5 assay, NCI-H716 cells endogenously expressing human TGR5, cAMP by HTRF; details: 30 min at 37 C, 22 nM to 50 μM, read-out: pEC50 endogenously expressed TGR5 in NCI H716 (converted)
T1 construct: human caecum carcinoma cell line NCI-H716 which endogenously expresses human TGR5; endogenous in cells; host or cells: NCI-H716
T1 sequence (Q8TDU6 1-330): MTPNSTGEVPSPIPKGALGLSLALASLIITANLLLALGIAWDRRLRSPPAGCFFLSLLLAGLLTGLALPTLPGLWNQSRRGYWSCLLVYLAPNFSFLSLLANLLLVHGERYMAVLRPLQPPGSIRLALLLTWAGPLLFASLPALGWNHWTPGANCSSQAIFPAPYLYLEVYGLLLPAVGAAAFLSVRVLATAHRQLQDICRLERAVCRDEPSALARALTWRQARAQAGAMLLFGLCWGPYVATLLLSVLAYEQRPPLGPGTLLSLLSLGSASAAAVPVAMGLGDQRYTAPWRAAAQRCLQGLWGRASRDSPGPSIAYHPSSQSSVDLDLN
Procedure, shortened: (§1)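 cAMP HTRF read-out, converted to concentration via standard curve, after a 30 min, 37 °C compound exposure in HBSS with 10 mM HEPES pH 7.4 and 0.5 mM IBMX, compounds serially diluted 3-fold from 10 mM DMSO stock then 100-fold. Cells: stable human TGR5 HEK293, or NCI-H716 expressing TGR5 endogenously.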

[2] = target: T2, human IBAT (Homo sapiens, UniProt Q12908); assay: IBAT counter screen, [3H]taurocholic acid uptake in IBAT-transfected HEK293 cells; assay type: cell-based; details: read-out: pEC50 human IBAT (converted)
T2 construct: expressed in transfected cells; host or cells: HEK293
T2 sequence (Q12908 1-348): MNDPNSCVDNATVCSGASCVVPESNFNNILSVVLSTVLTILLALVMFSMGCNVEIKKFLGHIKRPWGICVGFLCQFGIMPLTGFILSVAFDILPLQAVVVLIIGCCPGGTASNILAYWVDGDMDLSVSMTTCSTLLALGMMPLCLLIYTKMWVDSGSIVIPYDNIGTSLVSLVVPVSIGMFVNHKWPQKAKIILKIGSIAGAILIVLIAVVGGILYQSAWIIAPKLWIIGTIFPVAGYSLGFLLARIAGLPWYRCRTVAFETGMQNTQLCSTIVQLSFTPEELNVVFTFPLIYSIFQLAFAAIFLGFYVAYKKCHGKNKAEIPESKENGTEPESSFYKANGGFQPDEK
Protocol: Following a 40-min incubation, the solution was removed, and the cells were washed twice with uptake buffer. Cells were lysed by addition of 20 μL 0.1% Tween 80 followed by 100 μL scintillation fluid and counted using a TopCount (Perkin Elmer).

[3] = target: T3, human TGR5 (Homo sapiens, UniProt Q8TDU6); assay: Cell-based TGR5 assay, HEK293 cells stably expressing human TGR5, cAMP by HTRF; details: HEK293 cells stably expressing human TGR5, 30 min at 37 C, 0.05 nM to 10 μM, read-out: pEC50 Human TGR5 (converted)
T3 construct: expressed in transfected cells
T3 sequence (Q8TDU6 1-330): T1 sequence (Q8TDU6 1-330)
Procedure, shortened: as §1

| Compound | EC50 [1] [nM] | EC50 [2] [nM] | EC50 [3] [nM] |
| --- | --- | --- | --- |
| O=C(c1cccc(OCc2cc(Cl)ccc2Cl)n1)N1CCN(C2CC2)c2ccccc21 [Example 63, 1-cyclopropyl-4-([6-[(2,5-dichlorophenyl)methoxy]pyridin-2-yl]carbonyl)-1,2,3,4-tetrahydroquinoxaline] | 1260 to 50100 | > 25100 | 1260 to 50100 |
| O=C(N1CCN(C2CC2)c2ccccc21)C1(OCc2cc(Cl)ccc2Cl)CCCC1 [Example 8, (4-cyclopropyl-3,4-dihydroquinoxalin-1(2H)-yl)(1-(2,5 dichlorobenzyloxy)cyclopentyl)methanone] | 126 to 1000 | > 25100 | < 100 |
| O=C(c1cccn1Cc1cc(Cl)ccc1Cl)N1CCN(C2CC2)c2ccccc21 [Example 61, (4-cyclopropyl-3,4-dihydroquinoxalin-1(2H)-yl)(1-(2,5-dichlorobenzyl)-1H-pyrrol-2-yl)methanone] | 126 to 1000 | > 25100 | 126 to 1000 |
| O=C(c1ncoc1Cc1cc(Cl)ccc1Cl)N1CCN(C2CC2)c2ccccc21 [Example 66, 1-cyclopropyl-4-([5-[(2,5-dichlorophenyl)methyl]-1,3-oxazol-4-yl]carbonyl)-1,2,3,4-tetrahydroquinoxaline] | 1260 to 50100 | > 25100 | 1260 to 50100 |
| O=C(c1nccn1Cc1cc(Cl)ccc1Cl)N1CCN(C2CC2)c2ccccc21 [Example 62, (4-cyclopropyl-3,4-dihydroquinoxalin-1(2H)-yl)(1-(2,5-dichlorobenzyl)-1H-imidazol-2-yl)methanone] | 1260 to 50100 | > 25100 | 1260 to 50100 |
| CN(C(=O)C1(OCc2cc(Cl)ccc2Cl)CC1)c1ccccc1OCC1CC1 [Example 40, N-(2-(cyclopropylmethoxy)phenyl)-1-(2,5-dichlorobenzyloxy)-N-methylcyclopropanecarboxamide] | 126 to 1000 | > 25100 | < 100 |
| O=C([C@@H]1C2CC2CN1Cc1cc(Cl)ccc1Cl)N1CCN(C2CC2)c2ccccc21 (stereo partly drawn) [Example 24, (4-cyclopropyl-3,4-dihydroquinoxaline-1(2H)-yl)((2S)-3-(2,5-dichlorobenzyl)-3-azabicyclo[3.1.0]hexan-2-yl)methanone] | 1260 to 50100 | > 25100 | 1260 to 50100 |
| CC1(C)C[C@@H](C(=O)N2CCN(C3CC3)c3ccccc32)N(Cc2cc(Cl)ccc2Cl)C1 [Example 19, (S)-(4-cyclopropyl-3,4-dihydroquinoxaline-1 (2H)-yl)(1-(2,5-dichlorobenzyl)-4,4-dimethylpyrrolidin-2-yl)methanone] | 1260 to 50100 | > 25100 | 1260 to 50100 |
| COc1cccnc1N(C)C(=O)C1(OCc2cc(Cl)ccc2Cl)CC1 [Example 37, 1-(2,5-dichlorobenzyloxy)-N-(3-methoxypyridin-2-yl)-N-methylcyclopropanecarboxamide] | 1260 to 50100 | > 25100 | 126 to 1000 |
| O=C(C1CCN(Cc2cc(Cl)ccc2Cl)C1)N1CCN(C2CC2)c2ccccc21 (stereo not drawn) [Example 57, (4-cyclopropyl-3,4-dihydroquinoxalin-1(2H)-yl)(1-(2,5-dichlorobenzyl)pyrrolidin-3-yl) methanone] | 1260 to 50100 | > 25100 | 1260 to 50100 |
| O=C([C@@H]1CCCCN1Cc1cc(Cl)ccc1Cl)N1CCCc2ccccc21 [Example 11, (S)-(1-(2,5-dichlorobenzyl)piperidin-2-yl)(3,4-dihydroquinolin-1(2H)-yl)methanone] | 1260 to 50100 | > 25100 | 1260 to 50100 |
| O=C([C@@H]1CCCN1S(=O)(=O)c1cc(Cl)ccc1Cl)N1CCN(C2CC2)c2ccccc21 [Example 18] | 1260 to 50100 | > 25100 | 1260 to 50100 |
| O=C(N1CCN(C2CC2)c2ccccc21)N1CCCC1Cc1ccccc1Cl (stereo not drawn) [Example 28] | 1260 to 50100 | > 25100 | 1260 to 50100 |
| O=C([C@@H]1CCC(=O)N1Cc1cc(Cl)ccc1Cl)N1CCN(C2CC2)c2ccccc21 [Example 25, (S)-5-(4-cyclopropyl-1,2,3,4-tetrahydroquinoxaline-1-carbonyl)-1-(2,5-dichlorobenzyl)pyrrolidin-2-one] | 1260 to 50100 | > 25100 | 1260 to 50100 |
| O=C(C1=C(Oc2cc(Cl)ccc2Cl)CCCC1)N1CCN(C2CC2)c2ccccc21 [Example 29, (4-cyclopropyl-3,4-dihydroquinoxalin-1(2H)-yl)(2-(2,5-dichlorophenoxy)cyclohex-1-enyl)methanone] | 126 to 1000 | > 25100 | < 100 |
| O=C(c1cccc(=O)n1Cc1cc(Cl)ccc1Cl)N1CCN(C2CC2)c2ccccc21 [Example 64, 6-[(4-cyclopropyl-1,2,3,4-tetrahydroquinoxalin-1-yl)carbonyl]-1-[(2,5-dichlorophenyl)methyl]-1,2-dihydropyridin-2-one] | 1260 to 50100 | > 25100 | 1260 to 50100 |
| CC(C)(OCc1cc(Cl)ccc1Cl)C(=O)N1CCN(C2CC2)c2ccccc21 [Example 1, 1-(4-cyclopropyl-1,2,3,4-tetrahydroquinoxalin-1-yl)-2-[(2,5-dichlorophenyl)methoxy]-2-methylpropan-1-one] | 126 to 1000 | > 25100 | 126 to 1000 |
| O=C(COc1cc(Cl)ccc1Cl)N1CCN(C2CC2)c2ccccc21 [Example 4, 1-(4-cyclopropyl-3,4-dihydroquinoxalin-1(2H)-yl)-2-(2,5-dichlorophenoxy)ethanone] | > 50100 | > 25100 | 1260 to 50100 |
| COc1ccccc1N(C)C(=O)C1(OCc2cc(Cl)ccc2Cl)CC1 [Example 36, 1-(2,5-dichlorobenzyloxy)-N-(2-methoxyphenyl)-N-methylcyclopropanecarboxamide] | 126 to 1000 | > 25100 | < 100 |
| Cc1nn(C)c(Oc2cc(Cl)ccc2Cl)c1C(=O)N1CCN(C2CC2)c2ccccc21 [Example 65, 1-cyclopropyl-4-[[5-(2,5-dichlorophenoxy)-1,3-dimethyl-1H-pyrazol-4-yl]carbonyl]-1,2,3,4-tetrahydroquinoxaline] | 1260 to 50100 | > 25100 | 1260 to 50100 |
| CN(Cc1cc(Cl)ccc1Cl)C1(C(=O)N2CCN(C3CC3)c3ccccc32)CC1 [Example 27, (4-cyclopropyl-3,4-dihydroquinoxalin-1(2H)-yl)(1-((2,5-dichlorobenzyl)(methyl)amino)cyclopropyl)methanone] | 1260 to 50100 | > 25100 | 126 to 1000 |
| CC(C)(COc1cc(Cl)ccc1Cl)C(=O)N1CCN(C2CC2)c2ccccc21 [Example 31, 1-(4-cyclopropyl-1,2,3,4-tetrahydroquinoxalin-1-yl)-3-(2,5-dichlorophenoxy)-2,2-dimethylpropan-1-one] | 126 to 1000 | > 25100 | < 100 |
| O=C(N1CCN(C2CC2)c2ccccc21)C1(NCc2cc(Cl)ccc2Cl)CCC1 [Example 56] | < 100 | > 25100 | < 100 |
| O=C([C@@H]1CCCCN1C(=O)c1cc(Cl)ccc1Cl)N1CCN(C2CC2)c2ccccc21 [Example 13, (S)-(2-(4-cyclopropyl-1,2,3,4-tetrahydroquinoxaline-1-carbonyl)piperidin-1-yl)(2,5-dichlorophenyl)methanone] | 1260 to 50100 | > 25100 | 1260 to 50100 |
